According to patent US20080306268A1, “Crystalline clopidogrel hydrobromide and processes for preparation thereof” (Teva Pharmaceuticals USA, Inc. for Barbados, priority 2004, published 2008):
Counter-ions that a name gives are not always drawn. One block for each molecule: values may come before it.

Assays:
[1] = opened beaker, room temperature, 4 days
Procedure: Form I may also be prepared by exposing a hygroscopic crystalline clopidogrel hydrobromide to air, preferably for at least about 24 hours. In a preferred embodiment, the clopidogrel hydrobromide exposed is Form II, discussed below.

[2] = pure crystalline hydrate, purity at least about 99% by HPLC
platelet aggregation = conditions: 75 mg base equivalent versus 325 mg aspirin; cited from earlier work
[3] = compared with aspirin; cited from earlier work

crystalline form after exposure to air [1]: giving clopidogrel hydrobromide form I
SMILES: COC(=O)[C@H](c1ccccc1Cl)N1CCc2sccc2C1 [Form II, clopidogrel hydrobromide]

hygroscopicity [2]: only minor hygroscopicity
SMILES: COC(=O)[C@H](c1ccccc1Cl)N1CCc2sccc2C1 [clopidogrel hydrobromide hydrate]

SMILES: COC(=O)[C@H](c1ccccc1Cl)N1CCc2sccc2C1 [clopidogrel, methyl (+)-(S)-∝-(o-chlorophenyl)-6,7-dihydrothieno[3,2-c]pyridine-5(4H)-acetate]
effectiveness in blocking platelet aggregation versus aspirin (platelet aggregation): more effective in blocking platelet aggregation than aspirin
gastrointestinal bleeding versus aspirin [3]: much less gastrointestinal bleeding than aspirin
